Measurements reported in ChEMBL document CHEMBL3046442, “Synthesis and Acaricidal Activity of Bicyclic Pyrazole-3-carboxamide Derivatives” (1992).
Converted amounts (≈) assume the structure as drawn.

How the values were obtained:
Type in all cases: functional
Tetranychus urticae [1] = assay: Acaricidal activity against Tetranychus urticae (two-spotted spider mite) infested kidney bean leaf assessed as mortality at 3.1 ppm after 5 days; settings: 120 h
Tetranychus urticae [2] = assay: Acaricidal activity against Tetranychus urticae (two-spotted spider mite) infested kidney bean leaf assessed as mortality at 200 ppm after 5 days; settings: 120 h
Tetranychus urticae [3] = assay: Acaricidal activity against Tetranychus urticae (two-spotted spider mite) infested kidney bean leaf assessed as mortality at 50 ppm after 5 days; settings: 120 h
Tetranychus urticae [4] = assay: Acaricidal activity against Tetranychus urticae (two-spotted spider mite) infested kidney bean leaf assessed as mortality at 12.5 ppm after 5 days; settings: 120 h
Panonychus citri [5] = assay: Adulticidal activity against adult Panonychus citri infested mandarian orange after 2 days; settings: 48 h
Tetranychus urticae [6] = assay: Ovicidal activity against Tetranychus urticae (two-spotted spider mite) eggs laid on compound-treated kidney bean leaf disk measured after 7 days; settings: foliar, 168 h
Panonychus citri [7] = assay: Ovicidal activity against Panonychus citri eggs laid on compound-treated mandarian orange measured after 7 days; settings: 168 h
Tetranychus urticae [8] = assay: Adulticidal activity against adult Tetranychus urticae (two-spotted spider mite) infested kidney bean leaf disk after 2 days; settings: foliar, 48 h

SMILES | mortality at 3.1 ppm (Tetranychus urticae [1]) [%] | mortality at 200 ppm (Tetranychus urticae [2]) [%] | mortality at 50 ppm (Tetranychus urticae [3]) [%] | mortality at 12.5 ppm (Tetranychus urticae [4]) [%] | LC50 (Panonychus citri [5]) [µg/mL] | LC50 (Tetranychus urticae [6]) [µg/mL] | LC50 (Panonychus citri [7]) [µg/mL] | LC50 (Tetranychus urticae [8]) [µg/mL]
Cn1nc2c(c1C(=O)NCc1ccc(C(C)(C)C)cc1)CCCC2 | 0 | 2 | 1 | 0 | – | – | – | –
CC1CCCc2c1nn(C)c2C(=O)NCc1ccc(C(C)(C)C)cc1 (stereo unspecified) | 0 | 0 | 0 | 0 | – | – | – | –
CC1CC(C)c2c1nn(C)c2C(=O)NCc1ccc(C(C)(C)C)cc1 (stereo unspecified) | 0 | 1 | 0 | 0 | – | – | – | –
CCC1CCc2c1nn(C)c2C(=O)NCc1ccc(C(C)(C)C)cc1 (stereo unspecified) | 0 | 0 | 0 | 0 | – | – | – | –
Cn1nc2c(c1C(=O)NCc1ccc([Si](C)(C)C)cc1)CCC2 | 1 | 3 | 3 | 3 | – | – | – | –
CC1CCc2c1nn(C)c2C(=O)NCc1ccc(C(C)(C)C)cc1 (stereo unspecified) | 3 | 3 | 3 | 3 | 0.42 (≈ 1.29 µM) | 1.7 (≈ 5.22 µM) | 6.3 (≈ 19.4 µM) | 2.1 (≈ 6.45 µM)
Cn1nc2c(c1C(=O)NCc1ccc(CC(C)(C)C)cc1)CCC2 | 0 | 3 | 1 | 0 | – | – | – | –
CCC(C)c1ccc(CNC(=O)c2c3c(nn2C)CCC3)cc1 (stereo unspecified) | 0 | 3 | 3 | 1 | – | – | – | –
CC(C)Cc1ccc(CNC(=O)c2c3c(nn2C)CCC3)cc1 | 0 | 1 | 0 | 0 | – | – | – | –
CCCCc1ccc(CNC(=O)c2c3c(nn2C)CCC3)cc1 | 0 | 2 | 0 | 0 | – | – | – | –
CC(C)c1ccc(CNC(=O)c2c3c(nn2C)CCC3)cc1 | 0 | 3 | 2 | 1 | – | – | – | –
Cc1ccc(CNC(=O)c2c3c(nn2C)CCC3)cc1 | 0 | 0 | 0 | 0 | – | – | – | –
Cn1nc2c(c1C(=O)NCc1ccccc1)CCC2 | 0 | 0 | 0 | 0 | – | – | – | –
Cn1nc2c(c1C(=O)SCc1ccc(C(C)(C)C)cc1)CCC2 | – | 0 | 0 | – | – | – | – | –
Cn1nc2c(c1C(=O)OCc1ccc(C(C)(C)C)cc1)CCC2 | – | 1 | 0 | – | – | – | – | –
Cn1nc2c(c1C(=S)NCc1ccc(C(C)(C)C)cc1)CCC2 | – | 0 | 0 | – | – | – | – | –
CN(Cc1ccc(C(C)(C)C)cc1)C(=O)c1c2c(nn1C)CCC2 | – | 0 | 0 | – | – | – | – | –
Cn1nc2c(c1C(=O)NCCc1ccc(C(C)(C)C)cc1)CCC2 | – | 0 | 0 | – | – | – | – | –
CC(C)(C)c1ccc(CNC(=O)c2c3c(nn2-c2ccccc2)CCC3)cc1 | – | 0 | 0 | – | – | – | – | –
CC(C)(C)c1ccc(CNC(=O)c2c3c(nn2C(C)(C)C)CCC3)cc1 | – | 0 | 0 | – | – | – | – | –
CCCCn1nc2c(c1C(=O)NCc1ccc(C(C)(C)C)cc1)CCC2 | – | 0 | 0 | – | – | – | – | –
CC(C)n1nc2c(c1C(=O)NCc1ccc(C(C)(C)C)cc1)CCC2 | – | 0 | 0 | – | – | – | – | –
CCn1nc2c(c1C(=O)NCc1ccc(C(C)(C)C)cc1)CCC2 | – | 0 | 0 | – | – | – | – | –
Cn1nc2c(c1C(=O)NCc1ccc(C(C)(C)C)cc1)CCC2 | 2 | 3 | 3 | 3 | – | – | – | –
CC(C)(C)c1ccc(CNC(=O)c2[nH]nc3c2CCC3)cc1 | – | 0 | 0 | – | – | – | – | –
CCc1nn(C)c(C(=O)NCc2ccc(C(C)(C)C)cc2)c1Cl [TEBUFENPYRAD] | – | – | – | – | 0.5 (≈ 1.5 µM) | 0.96 (≈ 2.88 µM) | 3.9 (≈ 11.7 µM) | 3.7 (≈ 11.1 µM)
